For test [1], the system named is HGC-27. Description: Antiproliferative activity against HGC27 cells at 50 uM by MTT assay. It is filed as functional, cell-based. The following applies: Homo sapiens.
The subject of test [2] is HGC-27. Description: Cell cycle arrest in HGC27 cells by accumulation at G2/M phase at 50 uM after 24 hrs. Type of test: functional. The following applies: Homo sapiens, HGC-27, 24 h.
Test [3] concerns A549. Description: Cell cycle arrest in A549 cells by accumulation at G2/M phase at 50 uM after 24 hrs. It is filed as functional, cell-based. The following applies: Homo sapiens.
The test system of test [4] is A549. Description: Antiproliferative activity against A549 cells by MTT assay. Type of test: functional, cell-based. To be noted: Homo sapiens.
In test [5] the test system is HGC-27. Description: Antiproliferative activity against HGC27 cells by MTT assay. It is filed as functional, cell-based. To be noted: Homo sapiens.

The values that follow come from ChEMBL document CHEMBL1139702, “4'-Alkoxyl substitution enhancing the anti-mitotic effect of 5-(3',4',5'-substituted)anilino-4-hydroxy-8-nitroquinazolines as a novel class of anti-microtubule agents” (Bioorg Med Chem Lett, 2006).

SMILES strings stand for the structures. The source made the active and inactive calls. No cut-off for these calls is given here.

Take `O=[N+]([O-])c1ccc(Nc2ccc(OCc3ccccc3)c(Cl)c2)c2c(O)ncnc12`: the outcome in the test with HGC-27 [1] was Active.

For `COc1cc(Nc2ccc([N+](=O)[O-])c3ncnc(O)c23)cc(OC)c1OC`, the outcome in the test on HGC-27 [1] and in the test on A549 [3] was Active. The compound further displayed an inhibition at 50 µM in the test with HGC-27 [2] of 81%.

Regarding `COC(=O)/C=C\c1ccc(C(=O)OCCOc2ccc(Nc3ccc([N+](=O)[O-])c4ncnc(O)c34)cc2)cc1`, the result with HGC-27 [1] was Active. On to `COc1ccc(Nc2ccc([N+](=O)[O-])c3ncnc(O)c23)cc1Cl`, for which the IC50 with A549 [4] and with HGC-27 [5] was 20 µM throughout. Take `O=[N+]([O-])c1ccc(Nc2ccc(OCCCN3CCOCC3)cc2)c2c(O)ncnc12`: the result in the test with HGC-27 [1] was Active.
